{"source": "patent US20020110601A1", "about": "“Antineoplastic platinum therapeutic method and composition” (priority 2000, published 2002)", "key": {"[1]": {"tested_on": "malignant pleural effusions", "conditions": "human, in vivo", "procedure": "A Phase I trial using the procedures of the present invention employed L-NDDP administered by intrapleural administration in patients with malignant pleural effusions.\nTherapy began with a starting dose was 75 mg/m^2. […] Four patients were treated at the highest tested dose of 550 mg/m^2."}, "[2]": {"conditions": "in vivo, iv; cited from earlier work"}, "[3]": {"tested_on": "malignant pleural mesothelioma", "assay": "Intrapleural administration in malignant pleural mesothelioma: indwelling catheter versus needle", "set-up": "species or system human", "conditions": "in vivo", "protocol": "The first cycle of platinum drug by the present invention was administered 7 days after a baseline thoracoscopy. […] The starting fluid volume infused was 225 ml. Dosages of up to about 450 mg/M^2 are useful, but the empirical end point is compromised respiration such as shortness of breath. […] Repeated administrations were given every 3 to 4 weeks with attention to the presence or absence of a draining pleural effusion without loculation or (adhesions). That is a loculation surrounding the catheter entry must be broken u or carefully drained at the time of additional drug introduction to avoid hydrostatic pressure increases. […] If the fluid was still draining through the indwelling catheter, the patient received a third treatment seven days after the this thoracoscopy. […] While the course of treatment is within the skill of the medical professional with a view to the presenting condition of each patient, some initial parameters are noted. Intrapleural infusion is usefully held between consecutive cycles until the absolute granulocyte count is >1,500/mm^3 and platelets >100,000/mm^3 and complete recovery of non-hematological toxicities."}}}
{"substance": "liposomal-cis-bis-neodecanoato-trans-R,R-1,2-diaminocyclohexane platinum (II) [L-NDDP]", "values": [{"measurement": "local pain", "setting": "[1]", "value": "no local pain"}, {"measurement": "toxicity", "setting": "[1]", "value": "mild nausea and vomiting"}, {"measurement": "systemic toxicity", "setting": "[1]; iv", "value": "No systemic toxicity"}, {"measurement": "dose limiting toxicity", "setting": "[2]", "value": "myelosuppression"}, {"measurement": "extravasation and sepsis", "setting": "[3]", "value": "avoided extravasation and sepsis"}]}
